The text below walks through data of patent US6803044B1, “Antimicrobial and anti-inflammatory peptides for use in human immunodeficiency virus” (priority 1999, dated 2004).

For test [1] the following is noted: centrally administered, rabbit; cited from earlier work.
Test [2] relates to C. albicans (clinical isolate). The test can be described thus: Melanocortin peptides on C. albicans viability (colony forming units). Format: cell-based. To be noted: for reduction of C. albicans CFU at higher concentrations: up to 10^−4M; for C. albicans colony forming units (CFU): two hours at 37° C. How it is done:
S. aureus (ATCC 29213) and C. albicans (clinical isolate) were obtained from the collection of the Department of Microbiology, Ospedale Maggiore di Milano. C. albicans were maintained on Sabouraud'[…] periodically transferred to Sabouraud's agar plates and incubated for 48 hours at 28° C. To prepare stationary growth phase yeast, a colony was taken from the agar plate and transferred into 30 ml Sabouraud-dextrose broth and incubated for 72 hours at 32° C. Cells were centrifuged at 100×g for 10 minutes and the pellet was washed twice with distilled water. Cells were counted and suspended in Hank's balanced salt solution (“HBSS”) to the desired concentration. Viability, determined by the exclusion of 0.01% methylene blue, remained >98%. […] Cells were then washed in cold distilled water and diluted with HBSS to a concentration of 100 organisms/ml. One ml aliquots were dispensed on blood agar plates and incubated for 48 hours at 37° C. Organism viability was estimated from the number of colonies formed. In subsequent experiments using similar procedures we compared activity of α-MSH (4-10), (6-13), (11-13), ACTH (1-39), (18-39), and fluconazole, the latter an established […]. […] There were at least six replicates for each concentration of peptide. […] The reaction was stopped after three minutes by the addition of ice cold ethanol. cAMP was measured in duplicate using a commercial enzyme immunoassay (EIA) kit (Amersham, United Kingdom) after extraction via the liquid-phase method according to manufacturer's instructions.

Test [3] has as its system chronically HIV-1 infected promonocytic U1 cell line. Briefly: p24 antigen release by stimulated U1 cells (ELISA). Format: cell-based. To be noted: for most effective concentration for HIV inhibition (p24 release): tested 10^−13 to 10^−4 M. On the procedure: (§1) Before use, cells were washed three times with HBSS (Gibco) to remove extracellular virus. […] In crowding experiments, U1 cells were seeded at the density of 2×10^5 mL and maintained in culture at 37° C. in 5% CO2 without change of medium for 7 days. […] In all experiments each condition was tested in triplicate.
(§2) p24 antigen release (Cellular Products Inc. Buffalo, N.Y., USA) and reverse transcriptase (ELISA Retrosys RT assay, Innovagen, Lund, Sweden) were determined using commercial ELISA kits.
(In general: ELISA stands for enzyme-linked immunosorbent assay.)

Test [4] has the same test system. Briefly: reverse transcriptase (RT) release by stimulated U1 cells (ELISA). The following applies: U1 cells induced by IL-6, IL-10, PMA, and in crowding condition; KPV 10^−5 M. Format: cell-based. How it is done:
as §1, §2

The subject of test [5] is HIV-1 RNA in PMA-stimulated U1 cells. The test can be described thus: Northern blot for HIV-1 RNA in U1 cells. Format: cell-based. To be noted: PMA (1 ng/mL)-stimulated U1 cells; KPV 10^−5 M; 24 h. The text has this:
Total RNA was extracted by the guanidine thiocyapate phenol method using an RNA isolation kit (Tripure, Boehringer Mannheim, Indianapolis, Ind.), following the manufacturer's instructions. Ten μg of total RNA were separated by 0.8% agarose/formaldehyde gel electrophoresis and transferred onto nylon membrane. The filters were baked and hybridized for 18 hr with α^32 P-labeled HIV-full length probe (kind gift of L. Turchetto and E. Vicenzi, S. Raffaele Hospital, Milan, Italy). The radiolabelling reaction was performed using a DNA labelling kit (Ready-to-go, Pharmacia Biotech, San Francisco, Calif.). Filters were washed and exposed to X-ray film for 5 days. The labeled probe was removed by washing at 80° C. in 0.1×SSC containing 0.1% sodium dodecyl sulphate and then rehybridized witb α^32 P-labeled glyceraldehyde-3-phosphate dehydrogenase (GAPDH) cDNA probe. Densitometric analysis was performed using ImageMaster™ VDS 3.0 software (Pharmacia Biotech) and results were expressed as density units.

Test [6] relates to HIV-1Ba-L strain in human MDM. Briefly: RT release in acutely infected monocyte derived macrophages (MDM). The following applies: KPV 10^−5 M daily, more pronounced on day 6, still significant on day 21. Format: cell-based. How it is done:
as §2
Human peripheral blood mononuclear cells (PBMCs) were isolated from normal donors by Ficoll-Hypaque density gradient centrifugation. Monocytes were isolated by Percoll gradient separation and allowed to differentiate into macrophages (MDM) in complete medium RPMI plus 20% FCS in 24-well tissue culture plates at 10^6 cells/mL for 7-days. MDM were infected with monocytotropic HIV-1Ba-L strain (1:10) overnight. The undiluted viral stock contained 10^7 infectious Units/mL. After 24 h, MDM were washed and resuspended in complete medium, replaced 3 times/week, for 3 weeks. RT activity was measured weekly post-infection.

Test [7] has as its system NF-κB. Briefly: Electrophoretic mobility shift assay of NF-κB DNA-binding activity in U1 cells. Format: cell-based. The following applies: 10^−5 M peptide. The text has this:
The mixtures were run on a 5% (30:1) acrylamide gel in 1× Tris-Borate-EDTA (TBE). Gels were dried and exposed to film for autoradiography (3 days).
On the technique in general: Mobility shift assays separate free from complexed probe on a gel.

Test [8] has as its system S. aureus (ATCC 29213). Briefly: Melanocortin peptides on S. aureus viability (colony formation). Format: cell-based. To be noted: two hours at 37° C. How it is done: S. aureus (ATCC 29213) and C. albicans (clinical isolate) were obtained from the collection of the Department of Microbiology, Ospedale Maggiore di Milano. C. albicans were maintained on Sabouraud'[…] periodically transferred to Sabouraud's agar plates and incubated for 48 hours at 28° C. To prepare stationary growth phase yeast, a colony was taken from the agar plate and transferred into 30 ml Sabouraud-dextrose broth and incubated for 72 hours at 32° C. Cells were centrifuged at 100×g for 10 minutes and the pellet was washed twice with distilled water. Cells were counted and suspended in Hank's balanced salt solution (“HBSS”) to the desired concentration. Viability, determined by the exclusion of 0.01% methylene blue, remained >98%. […] Cells were then washed in cold distilled water and diluted with HBSS to a concentration of 100 organisms/ml. One ml aliquots were dispensed on blood agar plates and incubated for 24 hours at 37° C. Organism viability was estimated from the number of colonies formed.

Test [9] has as its system S. aureus. The test can be described thus: Urokinase-induced growth enhancement of S. aureus. Format: cell-based. To be noted: peptide 10^−6M; urokinase 500 U; four hours. The text has this:
In experiments on S. aureus, we determined the influence of α-MSH on urokinase-induced growth-enhancement. Hart, D. A.; Loule, T.; Krulikl, W.; Reno, C., Staphylococcus Aureus Strains Differ in Their in Vitro Responsiveness to Human Urokinase: Evidence that Methicillin-Resistant Strains are Predominantly Nonresponsive to the Growth-Enhancing Effects of Urokinase, Can. J. Microbiol. 42, 1024-31 […]. […] Appropriate dilutions of S. aureus were dispensed on agar plates and colonies counted after 24 hours incubation at 37° C.

The subject of test [10] is C. albicans. Briefly: α-MSH peptides on C. albicans germination (horse serum-induced). Format: cell-based. The following applies: horse serum-induced germ tube formation; peptide 10^−4M; 60 minutes. How it is done:
C. albicans from stationary phase cultures were washed twice with distilled water and suspended in HBSS to a final concentration of 2×10^6/ml. Hyphal growth was induced by addition of 10% inactivated horse serum (GMCO/BRL, Paisley, Great Britain) to yeast incubated for 45 minutes at 37° C. with continuous shaking. […] The percentage of filamentous cells was evaluated under a light microscope with the aid of a hartocytometer. Experiments were run in triplicate and at least 200 cells were scored. Photomicrographs were taken with a MC100 […] attached to an Axioskop Zeiss microscope.

For test [11], the system named is C. albicans killing by human neutrophils. Briefly: C. albicans killing by human neutrophils. Format: cell-based. To be noted: two hours at 37° C. How it is done:
Venous blood (20 ml) from healthy volunteers was anticoagulated with heparin. Neutrophils were isolated using dextran sedimentation and Ficoll-Hypaque (Sigma Chemical Co., St. Louis, Mo., USA) centrifugation. Erythrocytes were lysed via hypotonic shock. Neutrophils represented at least 97% of the cell suspension. Cell viability, estimated by trypan blue exclusion, was >98%. Neutrophils were suspended to final concentration in HBSS. […] After incubation, the culture tubes were placed on ice to stop growth and extracellular organisms were washed twice with centrifugation at 100×g at 4° C. A 2.5% sodium desoxycholate solution was added to the suspension and the tubes were shaken for five minutes. Cold distilled water was added to obtain a suspension of 10^6 cells/ml. Two 1/100 serial dilution in HBSS were made to obtain a final suspension of 100 cells/ml. Aliquots of 1 ml were dispensed on blood agar plates and incubated for 48 hours at 37° C. Colony forming units (“CFU”) were counted at the end of the incubation period. Experiments were run in triplicate and repeated using blood from five different donors.

Test [12] relates to C. albicans. Briefly: cAMP accumulation in C. albicans (EIA). Format: cell-based. To be noted: 10^−6M; three minutes. How it is done:
The reaction was stopped after three minutes by the addition of ice cold ethanol. cAMP was measured in duplicate using a commercial enzyme immunoassay (EIA) kit (Amersham, United Kingdom) after extraction via the liquid-phase method according to manufacturer's instructions.
A general note: Cyclic AMP is a second messenger, typically raised through Gs and lowered through Gi signalling.

The conditions of test [13]: in vivo; cited from earlier work.
[14] abbreviates: 10^−4M melanocortin peptides (FIG. 11 legend: 10^−6M).

Ends that are not written are not given here.

For “10-13 sequence: α-MSH (11-13) with glycine added to form the 10-13 sequence (GKPV; ends and bridges not checked; UniProt P01189 147-150, looked up, fragment)”, the “antipyretic potency relative to the 11-13 sequence” value in test [1] was “slightly decreased potency”.
Regarding “ACTH (1-39): melanocortin peptide ACTH (1-39) (SYSMEHFRWGKPVGKKRRPVKVYPNGAEDESAEAFPLEF; Corticotropin; UniProt P01189 138-176, looked up) [reference compound]”, in [2] (setting [14]), the “relative potency in reducing C. albicans viability” value is “did not reduce C. albicans viability”. The “reduction of C. albicans CFU at higher concentrations” value in [2] is “likewise ineffective”.
The matching figures for “ACTH fragment (18-39): ACTH fragment (18-39) (CLIP) [reference compound]”: “did not reduce C. albicans viability” and “likewise ineffective”.
On to HFRWGKPV [α-MSH (6-13)], for which the “relative potency in reducing C. albicans viability” value in [2] (setting [14]) is “most effective”.
In the case of KPV, the “most effective concentration for HIV inhibition (p24 release)” value in [3] (TNF-α-stimulated U1 cells) was 10^−5 M. Further, the p24 release entry in test [3] (U1 cells induced by IL-6, IL-10, PMA, and in crowding condition, KPV 10^−5 M) is “significantly inhibited”. The RT release result in test [4] and in test [6] was “significantly inhibited” each time. Besides, in test [5], the “reduction of both spliced and unspliced HIV-1 RNA” value is listed as “approximately 50%”. The entries for the “NF-κB activation (DNA binding)” value in [7] (TNF-α-treated U1 cells) and in test [7] (resting U1 cells) were “significantly reduced” and “did not alter”, respectively. The “S. aureus colony formation” value in [8] is given as “inhibited”. The “enhancing effect of urokinase on S. aureus colony formation” value in [9] is “significantly inhibited”. For the same substance, in [2], the “C. albicans colony forming units (CFU)” value is reported as “greatly reduced”. Moreover, the “reduction in the number of filamentous cells (inhibition of germination)” value in test [10] is recorded as 54-58%. Also, the “killing of C. albicans by human neutrophils” value in test [11] is recorded as “enhanced killing”. Moreover, in [12], the “cAMP content of C. albicans” value is on record as “enhanced cAMP content”.
Turning to MEHFRWG [α-MSH sequence (4-10)], in test [2] (setting [14]), the “inhibition of C. albicans CFU” value is given as “approximately 50%”.
As to “NH2-Val-Pro-Lys-Ac-Cys-Cys-Ac-Lys-Pro-Val-NH2 (Ac-CKPV-NH2; also: dimer linked through Cys-Cys) [KPV dimer]”, the “S. aureus colony formation” value in test [8] is “inhibited”. In [2] (S. aureus and C. albicans), the “effectiveness against microbes compared with α-MSH (11-13)” value is reported as “at least as effective as α-MSH (11-13)”. In test [2], the “C. albicans colony forming units (CFU)” value is given as “inhibited”.
On to “SYSMEHFRWGKPV (listed as Homo sapiens) [α-MSH (1-13)]”, for which the “inhibition of p24 release” value in test [3] (TNF-α-stimulated U1 cells, picomolar peptide concentrations that occur in human plasma) is listed as 34-36%. Further, the “most effective concentration for HIV inhibition (p24 release)” value in [3] (TNF-α-stimulated U1 cells) is 10^−5 M. Further, the “S. aureus colony formation” value in test [8] was “inhibited”. Further, the “enhancing effect of urokinase on S. aureus colony formation” value in test [9] is “significantly inhibited”. Also, the “C. albicans colony forming units (CFU)” value in test [2] is on record as “greatly reduced”. Besides, in test [11], the “killing of C. albicans by human neutrophils” value was “enhanced killing”. Also, the “cAMP content of C. albicans” value in test [12] was “enhanced cAMP content”.
For the substance [Nle^4, D-Phe^7], α-MSH, in test [13], the “potency in reducing fever relative to parent peptide” value is given as “approximately ten times more potent than the parent peptide”.
